Laboratory results from US10588888B2, “CNS-accessible pharmacological chaperones for treatment of acid β-glucosidase-related disease states” (Children's Hospital Medical Center, priority 2017, dated 2020).
Where a chain is given by its changes, count along the chain named. Read-outs that look alike come from different tables or passages of the source.

Columns and labels:
Recombinant GCase = biological target: T1, Recombinant GCase (Homo sapiens, UniProt P04062); experiment: Recombinant GCase activity with or without compound; type: biochemical; conditions: for Inhibition of GCase (in words): recombinant GCase
T1 sequence (P04062 40-536): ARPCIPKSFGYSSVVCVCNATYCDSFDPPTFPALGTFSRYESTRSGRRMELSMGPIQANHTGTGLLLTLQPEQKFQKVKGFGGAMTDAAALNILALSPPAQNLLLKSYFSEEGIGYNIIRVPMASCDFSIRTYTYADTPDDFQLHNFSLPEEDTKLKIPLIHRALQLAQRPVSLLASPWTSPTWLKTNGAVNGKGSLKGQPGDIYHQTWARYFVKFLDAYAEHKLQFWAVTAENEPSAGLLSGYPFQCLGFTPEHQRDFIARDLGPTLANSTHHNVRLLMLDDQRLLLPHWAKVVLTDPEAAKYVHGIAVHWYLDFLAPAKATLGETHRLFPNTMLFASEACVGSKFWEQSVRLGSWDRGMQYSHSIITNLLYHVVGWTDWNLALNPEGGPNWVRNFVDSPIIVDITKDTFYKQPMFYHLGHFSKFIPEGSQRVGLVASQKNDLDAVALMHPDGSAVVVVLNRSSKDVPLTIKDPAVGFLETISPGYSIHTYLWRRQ
Procedure: FIG. 2. […] Recombinant GCase was incubated with or without compound 216 at various concentration and GCase activity was determined.

Mutant GCase (V394L) = biological target: T2, Mutant GCase (V394L) (Mus musculus, UniProt P17439, V412L); experiment: GCase activity in mutant GCase fibroblasts treated with compounds; type: cell-based; conditions: for GCase activity (in words): 4L/4L and 4L;C* fibroblasts, 10 μM, vs untreated cells
T2 construct: Fibroblast cells from wild type (WT) and GCase mutant mice; endogenous in cells; host or cells: mouse fibroblasts from V394L/V394L (4L/4L) and 4L/4L; saposin C-/- (4L;C*) mice
T2 sequence (P17439 20-515 V412L): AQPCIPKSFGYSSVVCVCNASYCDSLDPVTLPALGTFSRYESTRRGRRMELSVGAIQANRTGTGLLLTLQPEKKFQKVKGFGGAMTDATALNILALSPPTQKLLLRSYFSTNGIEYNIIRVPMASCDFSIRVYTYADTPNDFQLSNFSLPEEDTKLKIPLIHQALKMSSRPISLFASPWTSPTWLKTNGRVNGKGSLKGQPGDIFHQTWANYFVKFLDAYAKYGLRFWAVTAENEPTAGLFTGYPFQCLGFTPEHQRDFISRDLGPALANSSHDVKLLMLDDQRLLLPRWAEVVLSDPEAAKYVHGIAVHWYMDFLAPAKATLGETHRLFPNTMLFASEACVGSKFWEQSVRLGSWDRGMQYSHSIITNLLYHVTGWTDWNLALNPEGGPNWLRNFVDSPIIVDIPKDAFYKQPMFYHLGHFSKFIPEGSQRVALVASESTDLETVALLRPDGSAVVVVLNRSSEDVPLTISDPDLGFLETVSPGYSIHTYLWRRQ
Procedure: (§1) FIG. 1. Screen of small molecules with NCGC607 as a positive control. Mutant GCase (V394L) fibroblasts were incubated with small molecules for 5 days at various concentration.
(§2) Fibroblast cells from wild type (WT) and GCase mutant mice, homozygous V394L/V394L (4L/4L) and 4L/4L/with saposin C−/− (4L;C*) were cultured in 10% Bovine Calf Serum/Dulbecco's Modified Eagle's medium (DMEM). The compounds were dissolved in Dimethyl sulfoxide (DMSO) at 5 mM as a stock solution and stored at −20° C. For cell treatment, the stock was diluted with DMEM and added to cells. The cells were incubated with the compounds for 5 days and changed with fresh media with the compound every two days.
(§3) Cell pellets were collected and washed with Phosphate-buffered saline twice. The cell pellets were homogenized in 1% Na-taurocholate/1% Triton X-100 (Tc/Tx). GCase activity was determined fluorometrically with 4MU-Glc as substrate in 0.25% Tc/Tx diluted in 0.1M citrate phosphate (CP) buffer (pH 5.6) as described. Protein concentrations of cells and tissues were determined by BCA assay using BSA as standard.

WT GCase [1] = biological target: T3, WT GCase (Mus musculus, UniProt P17439); experiment: GCase activity in WT fibroblasts treated with compounds; type: cell-based; conditions: 5 days, 10 μM, vs untreated cells
T3 construct: Fibroblast cells from wild type (WT) and GCase mutant mice; endogenous in cells; host or cells: wild-type mouse fibroblasts
T3 sequence (P17439 20-515): T2 sequence (P17439 20-515 V412L) with L393V
Procedure: as §2, §3

[2] = biological target: T4, mutant V394L GCase protein (Mus musculus, UniProt P17439, V412L); experiment: Immunoblot of GCase protein in mutant fibroblasts; type: cell-based; conditions: 4L/4L and 4L;C* fibroblasts, 10 μM, 5 days, vs untreated cells
T4 construct: Fibroblast cells from wild type (WT) and GCase mutant mice; endogenous in cells; host or cells: mouse fibroblasts from V394L/V394L (4L/4L) and 4L/4L; saposin C-/- (4L;C*) mice
T4 sequence (P17439 20-515 V412L): T2 sequence (P17439 20-515 V412L)
Procedure: as §2
(§4) Cell pellets were collected and washed with Phosphate-buffered saline twice. The pellets were suspended in M-per lysis buffer. Freeze and thaw twice to break down the cell membrane. Protein concentration was determined by the bicinchoninic acid assay. The proteins were resolved on 4-12% NuPAGE gel (Invitrogen) and were transferred to PVDF membrane using iBlot 2 gel transfer device (Life Technologies) following manufactural instruction. The blotted membranes were incubated with Goat anti-mouse GCase (1:1000) in 1.5% BSA/1.5% milk/PBS buffer overnight at 4° C. followed by IRdye Donkey anti-Goat 1:5000. The signals were detected using LI-COR detection system according to manufacturer's instruction.

WT GCase [3] = biological target: T3, WT GCase; experiment: Immunoblot of GCase protein in WT fibroblasts; type: cell-based; conditions: 10 μM, 5 days, vs untreated cells
Procedure: as §2, §4

[4] = biological target: T5, GCase (4L/4L and 4L;C* fibroblasts) (Mus musculus, UniProt P17439, V412L); experiment: Immunofluorescence co-localization of GCase and Lamp1 in mutant fibroblasts; type: cell-based; conditions: vs untreated cells
T5 construct: Fibroblast cells from wild type (WT) and GCase mutant mice; endogenous in cells; host or cells: mouse fibroblasts from V394L/V394L (4L/4L) and 4L/4L; saposin C-/- (4L;C*) mice
T5 sequence (P17439 20-515 V412L): T2 sequence (P17439 20-515 V412L)
Procedure: (§5) FIG. 5. Increased GCase protein in lysosomes of mouse fibroblasts treated with M chaperone compounds. (A) GCase (green) was co-stained with lysosomal marker, Lamp1 (red). Co-localization of GCase and Lamp1 (orange) indicates lysosomal localization of GCase.
as §2
(§6) The cells grown on the chamber slides were fixed in 4% paraformaldehyde for 30 mins, followed by washing twice in Phosphate-buffered saline. The cells were permeablized with 0.3% Triton X-100 in Phosphate-buffered saline and washed with Phosphate-buffered saline for three times. After blocking for 30 min in 1.5% BSA/0.5% gelatin diluted in Phosphate-buffered saline, primary antibody, mouse anti-Lamp1 (1:200) and goat anti-mGCase (1:200) were applied to the cells and incubated overnight at 4° C. The signals were detected using Donkey anti-goat-FITC (1:500) and goat anti-mouse-Texas Red (1:500) to the cognate primary antibody. The stained cells were mounted with antifade containing DAPI.

GCase (WT fibroblasts) = biological target: T6, GCase (WT fibroblasts) (Mus musculus, UniProt P17439); experiment: Immunofluorescence co-localization of GCase and Lamp1 in WT fibroblasts; type: cell-based; conditions: vs untreated cells
T6 construct: Fibroblast cells from wild type (WT) and GCase mutant mice; endogenous in cells; host or cells: wild-type mouse fibroblasts
T6 sequence (P17439 20-515): T2 sequence (P17439 20-515 V412L) with L393V
Procedure: as §5, §2, §6

[5] = system: Mutant GCase (V394L) fibroblasts; experiment: Toxicity in small molecule screen on mutant GCase fibroblasts; type: cell-based, mouse; conditions: 5 days, various concentration
Procedure: as §1, §2

MDR1 (P-gp) = experiment: MDR1-MDCK assay, blood-brain-barrier penetration potential; type: in vitro ADME; conditions: dog; for Papp A→B at 120 min, 5 μM: MDCK-MDR1, pH 7.4, A to B; for Papp B→A at 120 min, 5 μM: MDCK-MDR1, pH 7.4, B to A
Procedure: (§7) MDR1-MDCK cell monolayers were grown to confluence on collagen-coated, microporous membranes in 12-well assay plates. The permeability assay buffer was Hanks' balanced salt solution containing 10 mM HEPES and 15 mM glucose at a pH of 7.4. The buffer in the receiver chamber also contained 1% bovine serum albumin. The dosing solution concentration was 5 μM of test article in the assay buffer. Cell monolayers were dosed on the apical side (A-to-B) or basolateral side (B-toA) and incubated at 37° C. with 5% CO2 in a humidified incubator. Samples were taken from the donor and receiver chambers at 120 minutes. Each determination was performed in duplicate. The flux of lucifer yellow was also measured post-experimentally for each monolayer to ensure no damage was inflicted to the cell monolayers during the flux period. All samples were assayed by LC-MS/MS using electrospray ionization.
(§8) The apparent permeability (Papp) and percent recovery were calculated as follows: Papp=(dCr/dt)×Vr/(A×CA) Percent Recovery=100×((Vr×Cr^final)+(Vd×Cd^final))/(Vd×CN)
(§9) Where, dCr/dt is the slope of the cumulative concentration in the receiver compartment versus time in μM s^−1; Vr is the volume of the receiver compartment in cm^3; Vd is the volume of the donor compartment in cm^3; A is the area of the insert (1.13 cm^2 for 12-well); CA is the average of the nominal dosing concentration and the measured 120 minute donor concentration in μM; CN is the nominal concentration of the dosing solution in μM; Cr final is the cumulative receiver concentration in M at the end of the incubation period; Cd final is the concentration of the donor in M at the end of the incubation period.
(§10) Efflux ratio (ER) is defined as Papp (B-to-A)/Papp (A-to-B).

[6] = system: MDR1-MDCK cell monolayers; experiment: as above; type: in vitro ADME; conditions: MDR1-MDCK
Procedure: as §7, §8, §9, §10

MDR1 = experiment: as above; type: in vitro ADME; conditions: dog, 5 μM, 120 minutes
Procedure: as §7, §8, §9, §10

[7] = average, 5 μM, read-out: Papp AVE
[8] = replicate 1, 5 μM, read-out: Papp R1
[9] = replicate 2, 5 μM, read-out: Papp R2

Row | Structure (SMILES) | GCase activity (in words) (Mutant GCase (V394L); 5 days) | GCase activity (in words) (WT GCase [1]) | GCase protein levels (in words) [2] | GCase protein levels (in words) (WT GCase [3]) | Lysosomal localization of GCase protein (Pearson index, in words) [4] | Lysosomal localization of GCase protein (Pearson index, in words) (GCase (WT fibroblasts)) | other results
1 | O=C(COc1ccccc1C(=O)NCC1CCCO1)Nc1ccc(Br)cc1 (centres unmarked) [Compound 216] | Increased | Increased | increased | increased | enhanced | enhanced | Inhibition of GCase (in words) (Recombinant GCase): non-inhibitory; AC50 (Recombinant GCase; recombinant GCase incubated with compound at various concentration, read-out: AC50, activation effect on GCase): 10.1 µM; Inhibition of GCase (in words) (Recombinant GCase; listed as compound 216): did not inhibit; Activation function on GCase compared to NCGC607 (Mutant GCase (V394L); V394L fibroblasts, 5 days, various concentration): superior; Toxicity compared to 607 [5]: reduced toxicity
2 | O=C(COc1ccccc1C(=O)NCC1CCCO1)Nc1ccc(Br)cc1 (stereo in doubt) [Compound 6, 2-((4-bromophenylcarbamoyl)methoxy)-N(((R)tetrahydrofuran-2-yl)methyl)benzamide] | Increased | Increased | increased | increased | enhanced | enhanced | –
3 | O=C(COc1ccccc1C(=O)NC[C@@H]1CCCO1)Nc1ccc(Br)cc1 [Compound 8, 2-((4-bromophenylcarbamoyl)methyoxy)-N—(((S)-tetrahydrofuran-2-yl)methyl)benzamide] | Increased | Increased | increased | increased | enhanced | enhanced | Activity in the mutant GCase fibroblasts assay (comparison of stereoisomers) (Mutant GCase (V394L); mutant GCase fibroblasts): better activity than Compound 6; Papp A→B at 120 min, 5 μM (MDR1 (P-gp); [7]): 32.1 ×10⁻⁶ cm/s; Papp A→B at 120 min, 5 μM (MDR1 (P-gp); [8]): 33.4 ×10⁻⁶ cm/s; Papp A→B at 120 min, 5 μM (MDR1 (P-gp); [9]): 30.8 ×10⁻⁶ cm/s; Papp B→A at 120 min, 5 μM (MDR1 (P-gp); [7]): 34.4 ×10⁻⁶ cm/s; Papp B→A at 120 min, 5 μM (MDR1 (P-gp); [8]): 31.8 ×10⁻⁶ cm/s; Papp B→A at 120 min, 5 μM (MDR1 (P-gp); [9]): 37 ×10⁻⁶ cm/s; efflux ratio at 120 min, 5 μM (MDR1 (P-gp); MDCK-MDR1, pH 7.4, Papp (B-to-A)/Papp (A-to-B), P-gp): 1.1; Brain Penetration Classification [6]: High; Brain Penetration Classification ([6]; listed as #8): high; recovery at 120 min, 5 μM (MDR1; MDCK-MDR1, pH 7.4, A to B): 77%; recovery at 120 min, 5 μM (MDR1; MDCK-MDR1, pH 7.4, B to A): 86%
